Assay results taken from patent publication US20080249092A1, “Novel Quinoline Compounds Capable Of Binding At The Cb2 Receptor” (priority 2006, published 2008).
Where a name gives a salt, the structure may show the parent alone.

molecular target: T1, human cannabinoid CB2 receptor (Homo sapiens, UniProt P34972); test: Cannabinoid CB2 receptor agonist activity in yeast cells (FDGlu fluorescence); type: cell-based; conditions: not given
T1 construct: expressed in transfected cells; host or cells: Saccharomyces cerevisiae strain MMY23 (cassette integrated at the ura3 locus, GPD promoter)
T1 sequence (P34972 whole entry): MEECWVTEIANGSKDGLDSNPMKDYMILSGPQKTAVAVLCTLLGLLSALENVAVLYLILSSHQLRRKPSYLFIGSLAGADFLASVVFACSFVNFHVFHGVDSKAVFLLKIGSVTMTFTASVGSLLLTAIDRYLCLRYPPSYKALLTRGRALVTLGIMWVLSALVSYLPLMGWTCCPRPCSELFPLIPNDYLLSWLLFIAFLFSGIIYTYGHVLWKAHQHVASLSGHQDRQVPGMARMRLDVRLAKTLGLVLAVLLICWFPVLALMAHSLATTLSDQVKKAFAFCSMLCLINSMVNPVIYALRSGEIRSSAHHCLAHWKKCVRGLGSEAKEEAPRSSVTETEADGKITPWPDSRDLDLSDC
Description: The cannabinoid CB2 receptor agonist activity of compounds of formula (I) was determined in accordance with the following experimental method.
Yeast (Saccharomyces cerevisiae) cells expressing the human cannabinoid CB2 receptor were generated by integration of an expression cassette into the ura3 chromosomal locus of yeast strain MMY23. This cassette consisted of DNA sequence encoding the human CB2 receptor flanked by the yeast GPD promoter to the 5′ end of CB2 and a yeast transcriptional terminator sequence to the 3′ end of CB2. MMY23 expresses a yeast/mammalian chimeric G-protein alpha subunit in which the C-terminal 5 amino acids of Gpa1 are replaced with the C-terminal 5 amino acids of human Gαi1/23 (as described in Brown et al. (2000), Yeast 16:11-22). Cells were grown at 30° C. in liquid Synthetic Complete (SC) yeast media (Guthrie and Fink (1991), Methods in Enzymology, Vol. 194) lacking uracil, tryptophan, adenine and leucine to late logarithmic phase (approximately 6 OD600/ml).
Agonists were prepared as 10 mM solutions in DMSO. EC50 values (the concentration required to produce 50% maximal response) were estimated using 4 fold dilutions of between 3- and 5-fold (BiomekFX, Beckman) into DMSO. Agonist solutions in DMSO (1% final assay volume) were transferred into black microtitre plates from NUNC Greiner (384-well). Cells were suspended at a density of 0.2 OD600/ml in SC media lacking histidine, uracil, tryptophan, adenine and leucine and supplemented with 10 mM 3-aminotriazole, 0.1 M sodium phosphate pH 7.0, and 120 μM fluorescein di-β-D-glucopyranoside (FDGlu). This mixture (50 ul per well) was added to agonist in the assay plates (Multidrop 384, Labsystems). After incubation at 30° C. for 24 hours, fluorescence resulting from degradation of FDGlu to fluorescein due to exoglucanase, an endogenous yeast enzyme produced during agonist-stimulated cell growth, was determined using a fluorescence microtitre plate reader (Tecan Spectrofluor or LJL Analyst excitation wavelength: 485 nm; emission wavelength: 535 nm). Fluorescence was plotted against compound concentration and iteratively curve fitted using a four parameter fit to generate a concentration effect value.
Efficacy (Emax) was calculated from the equation
Emax=Max[compound X]−Min[compound X]/Max[HU210]−Min[HU210]×100%
where Max[compound X] and Min[compound X] are the fitted maximum and minimum respectively from the concentration effect curve for compound X, and Max[HU210] and Min[HU210] are the fitted maximum and minimum respectively from the concentration effect curve for (6aR, 10aR)-3-(1,1′-Dimethylheptyl)-6a,7,10,10a-tetrahydro-1-hydroxy-6,6-dimethyl-6H-dibenzo[b,d]pyran-9-methanol (HU210; available from Tocris). Equieffective molar ratio (EMR) values were calculated from the equation
Where EC50 [compound X] is the EC50 of compound X and EC50 [HU210] is the EC50 of HU210.
pEC50 is the negative log of the EC50.

Structure (SMILES) | EC50 [µM]
O=S(=O)(c1ccc(Cl)cc1)c1cnc2c(NCC3CCOCC3)cccc2c1 [Example E3, 3-[(4-Chlorophenyl)sulfonyl]-N-(tetrahydro-2H-pyran-4-ylmethyl)-8-quinolinamine] | < 1

same assay, conditions: agonist activity; Saccharomyces cerevisiae cells expressing the human CB2 receptor; 24 hours at 30° C.; read-out: pEC50 at the CB2 receptor (converted)

Structure (SMILES) | EC50 [µM]
O=S(=O)(c1ccccc1)c1cnc2c(NCCN3CCOCC3)cccc2c1 [Example E2, N-[2-(4-Morpholinyl)ethyl]-3-(phenylsulfonyl)-8-quinolinamine hydrochloride] | < 10
O=S(=O)(c1ccccc1)c1cnc2c(NCc3cccnc3)cccc2c1 [Example E4, 3-(Phenylsulfonyl)-N-(3-pyridinylmethyl)-8-quinolinamine] | < 1
O=S(=O)(c1ccccc1)c1cnc2c(NCCC3CCOCC3)cccc2c1 [Example E6, 3-(Phenylsulfonyl)-N-[2-(tetrahydro-2H-pyran-4-yl)ethyl]-8-quinolinamine hydrochloride] | < 1

The remaining lines, values ahead:

EC50 [µM] | Structure (SMILES)
< 1 | O=S(=O)(c1ccccc1)c1cnc2c(NCC3CCOCC3)cccc2c1 [Example E1, 3-(Phenylsulfonyl)-N-(tetrahydro-2H-pyran-4-ylmethyl)-8-quinolinamine]
< 1 | O=S(=O)(c1ccccc1)c1cnc2c(NCCc3ccncc3)cccc2c1 [Example E5, 3-(Phenylsulfonyl)-N-[2-(4-pyridinyl)ethyl]-8-quinolinamine hydrochloride]
< 1 | Cc1cc(CCNc2cccc3cc(S(=O)(=O)c4ccccc4)cnc23)ccn1 [Example E7, N-[2-(2-methyl-4-pyridinyl)ethyl]-3-(phenylsulfonyl)-8-quinolinamine hydrochloride]
